What all share (type): in vivo
In one assay the test system is Spodoptera frugiperda. The assay can be described thus: Spodoptera frugiperda spray test (maize leaf disks). As to conditions: foliar, 168 h, application rate 100 g/ha, caterpillars, after 7 days, 100% = all caterpillars killed, read-out: efficacy in %. From the text:
Spodoptera frugiuerda—Spray Test
Solvent: 78.0 parts by weight of acetone • • 1.5 parts by weight of dimethylformamide
Emulsifier: alkylaryl polyglycol ether
An appropriate active ingredient formulation is produced by dissolving 1 part by weight of active ingredient with the stated parts by weight of solvent and making the solution up to the desired concentration with water containing an emulsifier concentration of 1000 ppm. Further test concentrations are produced by diluting the formulation with emulsifier-containing water.
Leaf disks of maize (Zea mays) are sprayed with an active ingredient formulation of the desired concentration and, after drying, populated with caterpillars of the fall armyworm (Spodopterafrugiperda).
After 7 days, efficacy in % is determined. 100% means that all of the caterpillars have been killed; 0% means that none of the caterpillars have been killed.

The subject of a further assay is Diabrotica balteata. As to the kind of experiment: Diabrotica balteata spray test (germinated wheat grains). To be noted: 168 h, application rate 100 g/ha (=32 μg/cavity), after 7 days, beetle larvae on wheat, 100% = all wheat plants grown as in untreated, uninfected control, read-out: efficacy in %. The source says: Diabrotica Balteata—Spray Test Solvent: 78 parts by weight of acetone • • 1.5 parts by weight of dimethylformamide Emulsifier: alkylaryl polyglycol ether An appropriate active ingredient formulation is produced by dissolving 1 part by weight of active ingredient with the stated parts by weight of solvent and making the solution up to the desired concentration with water containing an emulsifier concentration of 1000 ppm. Further test concentrations are produced by diluting the formulation with emulsifier-containing water. Pre-swollen wheat grains (Triticum aestivum) are incubated in a multiwell plate filled with agar and a little water for one day (5 seed grains per cavity). The germinated wheat grains are sprayed with an active ingredient formulation of the desired concentration. Subsequently, each cavity is infected with 10-20 beetle larvae of Diabrotica balteata. After 7 days, efficacy in % is determined. 100% means that all wheat plants have grown as in the untreated, uninfected control; 0% means that no wheat plant has grown.

The test system of another assay is Nezara viridula. As to the kind of experiment: Nezara viridula spray test (barley plants). As to conditions: 96 h, application rate 500 g/ha, larvae, after 4 days, 100% = all shield bugs killed, read-out: efficacy in %. From the text:
Nezara viridula—Spray Test Solvent: 78.0 parts by weight of acetone • • 1.5 parts by weight of dimethylformamide Emulsifier: alkylaryl polyglycol ether An appropriate active ingredient formulation is produced by dissolving 1 part by weight of active ingredient with the stated parts by weight of solvent and making the solution up to the desired concentration with water containing an emulsifier concentration of 1000 ppm. Further test concentrations are produced by diluting the formulation with emulsifier-containing water. Barley plants (Hordeum vulgare) are sprayed with an active ingredient formulation of the desired concentration and are infected with larvae of the Southern green shield bug (Nezara viridula). After 4 days, efficacy in % is determined. 100% means that all of the shield bugs have been killed; 0% means that none of the shield bugs have been killed.

With `CCS(=O)(=O)c1c(-c2nc3cc4c(cc3n2C)OC(F)(F)C(F)(F)O4)nc(-c2cccc(C3(F)CC3)c2)n1C` [Example I-20, 2-{5-(Ethylsulfonyl)-2-[3-(1-fluorocyclopropyl)phenyl]-1-methyl-1H-imidazol-4-yl}-6,6,7,7-tetrafluoro-1-methyl-6,7-dihydro-1H-[1,4]dioxino[2,3-f]benzimidazole], the pest or weed control at 100 g/ha with Spodoptera frugiperda and in the assay with Diabrotica balteata was 100% throughout. Also, in the assay on Nezara viridula, the pest or weed control at 500 g/ha was determined as 90%.

Regarding `CCS(=O)(=O)c1c(-c2nc3cc4c(cc3n2C)OC(F)(F)C(F)(F)O4)nc(-c2cccc(Br)c2)n1C` [Example I-12, 2-[2-(3-Bromophenyl)-5-(ethylsulfonyl)-1-methyl-1H-imidazol-4-yl]-6,6,7,7-tetrafluoro-1-methyl-6,7-dihydro-1H-[1,4]dioxino[2,3-f]benzimidazole], the pest or weed control at 100 g/ha in the assay with Spodoptera frugiperda and in the assay with Diabrotica balteata was 100% each time.

As to `CCS(=O)(=O)c1c(-c2nc3cc4c(cc3n2C)OC(F)(F)C(F)(F)O4)nc(-c2ccc(-c3ccc(Br)cn3)cn2)n1C` [Example I-25], the pest or weed control at 100 g/ha in the assay on Spodoptera frugiperda amounted to 100%.

With `CCS(=O)(=O)c1c(-c2nc3cc4c(cc3n2C)OC(F)(F)C(F)(F)O4)nc(-c2cccc(C3(C#N)CC3)c2)n1C` [Example I-36], the pest or weed control at 100 g/ha with Spodoptera frugiperda and with Diabrotica balteata was 100% in each case. Besides, in the assay with Nezara viridula, the pest or weed control at 500 g/ha turned out to be 90%.

Turning to `CCS(=O)(=O)c1c(-c2nc3cc4c(cc3n2C)OC(F)(F)C(F)(F)O4)nc(-c2ccc(C3CC3)nc2)n1C` [Example I-18, 2-[2-(6-Cyclopropylpyridin-3-yl)-5-(ethylsulfonyl)-1-methyl-1H-imidazol-4-yl]-6,6,7,7-tetrafluoro-1-methyl-6,7-dihydro-1H-[1,4]dioxino[2,3-f]benzimidazole], the pest or weed control at 100 g/ha with Spodoptera frugiperda and in the assay with Diabrotica balteata was 100% throughout. In the assay on Nezara viridula, the pest or weed control at 500 g/ha was 100%.

In the case of `CCS(=O)(=O)c1c(-c2nc3cc4c(cc3n2C)OC(F)(F)C(F)(F)O4)nc(-c2ccc(C3(C(F)(F)F)CC3)cc2)n1C` [Example I-7, 2-[5-(Ethylsulfonyl)-1-methyl-2-{4-[1-(trifluoromethyl)cyclopropyl]phenyl}-1H-imidazol-4-yl]-6,6,7,7-tetrafluoro-1-methyl-6,7-dihydro-1H-[1,4]dioxino[2,3-f]benzimidazole], the pest or weed control at 100 g/ha in the assay with Diabrotica balteata amounted to 100%.

Turning to `CCS(=N)(=O)c1c(-c2nc3cc4c(cc3n2C)OC(F)(F)C(F)(F)O4)nc(-c2ccc(C3(C#N)CC3)cc2)n1C` (stereo not shown) [Example I-39], the pest or weed control at 100 g/ha in the assay with Spodoptera frugiperda came out at 100%.

For the compound `CCS(=O)(=O)c1c(-c2nc3cc4c(cc3n2C)OC(F)(F)C(F)(F)O4)nc(-c2ccc(Br)cc2)n1C` [Example I-10, 2-[2-(4-Bromophenyl)-5-(ethylsulfonyl)-1-methyl-1H-imidazol-4-yl]-6,6,7,7-tetrafluoro-1-methyl-6,7-dihydro-1H-[1,4]dioxino[2,3-f]benzimidazole], the pest or weed control at 100 g/ha in the assay with Spodoptera frugiperda and in the assay with Diabrotica balteata was 100% throughout. In the assay with Nezara viridula, the pest or weed control at 500 g/ha came to 100%.

With `CCS(=O)(=O)c1c(-c2nc3cc4c(cc3n2C)OC(F)(F)C(F)(F)O4)nc(-n2cnc(C3CC3)n2)n1C` [Example I-23, 2-[2-(3-Cyclopropyl-1H-1,2,4-triazol-1-yl)-5-(ethylsulfonyl)-1-methyl-1H-imidazol-4-yl]-6,6,7,7-tetrafluoro-1-methyl-6,7-dihydro-1H-[1,4]dioxino[2,3-f]benzimidazole], the pest or weed control at 100 g/ha is 100% in the assay on Spodoptera frugiperda and 80% in the assay on Diabrotica balteata. The pest or weed control at 500 g/ha in the assay on Nezara viridula was 100%.

With `CCS(=O)(=O)c1c(-c2nc3cc4c(cc3n2C)OC(F)(F)C(F)(F)O4)nc(-c2ccc(F)cc2)n1C` [Example I-5, 2-[5-(Ethylsulfonyl)-2-(4-fluorophenyl)-1-methyl-1H-imidazol-4-yl]-6,6,7,7-tetrafluoro-1-methyl-6,7-dihydro-1H-[1,4]dioxino[2,3-f]benzimidazole], the pest or weed control at 100 g/ha in the assay on Spodoptera frugiperda and in the assay with Diabrotica balteata was 100% in each case.

With `CCS(=O)(=O)c1c(-c2nc3cc4c(cc3n2C)OC(F)(F)C(F)(F)O4)nc(-c2ccc(Cl)s2)n1C` [Example I-19, 2-[2-(5-Chloro-2-thienyl)-5-(ethylsulfonyl)-1-methyl-1H-imidazol-4-yl]-6,6,7,7-tetrafluoro-1-methyl-6,7-dihydro-1H-[1,4]dioxino[2,3-f]benzimidazole], the pest or weed control at 100 g/ha in the assay with Spodoptera frugiperda worked out at 100%. Further, the pest or weed control at 500 g/ha in the assay with Nezara viridula was determined as 100%.

For the compound `CCS(=O)(=O)c1c(-c2nc3cc4c(cc3n2C)OC(F)(F)C(F)(F)O4)nc(-c2ccc(C3(F)CC3)cc2)n1C` [Example I-11, 2-{5-(Ethylsulfonyl)-2-[4-(1-fluorocyclopropyl)phenyl]-1-methyl-1H-imidazol-4-yl}-6,6,7,7-tetrafluoro-1-methyl-6,7-dihydro-1H-[1,4]dioxino[2,3-f]benzimidazole], the pest or weed control at 100 g/ha in the assay with Spodoptera frugiperda and in the assay on Diabrotica balteata was 100% throughout. Also, the pest or weed control at 500 g/ha in the assay on Nezara viridula is 100%.

For `CCS(=O)(=O)c1c(-c2nc3cc4c(cc3n2C)OC(F)(F)C(F)(F)O4)nc(-c2ccc(C(F)(F)F)cc2)n1C` [Example I-15, 2-{5-(Ethylsulfonyl)-1-methyl-2-[4-(trifluoromethyl)phenyl]-1H-imidazol-4-yl}-6,6,7,7-tetrafluoro-1-methyl-6,7-dihydro-1H-[1,4]dioxino[2,3-f]benzimidazole], the pest or weed control at 100 g/ha with Spodoptera frugiperda and in the assay on Diabrotica balteata was 100% each time. Further, the pest or weed control at 500 g/ha in the assay with Nezara viridula amounted to 100%.

Take `CCS(=O)(=O)c1c(-c2nc3cc4c(cc3[nH]2)OC(F)(F)C(F)(F)O4)nc(Br)n1C` [Example I-2, 2-[2-Bromo-5-(ethylsulfonyl)-1-methyl-1H-imidazol-4-yl]-6,6,7,7-tetrafluoro-6,7-dihydro-1H-[1,4]dioxino[2,3-f]benzimidazole]: the pest or weed control at 100 g/ha in the assay on Spodoptera frugiperda and with Diabrotica balteata was 100% each time.

Take `CCS(=O)(=O)c1c(-c2nc3cc4c(cc3n2C)OC(F)(F)C(F)(F)O4)nc(-c2cccc(F)c2)n1C` [Example I-14, 2-[5-(Ethylsulfonyl)-2-(3-fluorophenyl)-1-methyl-1H-imidazol-4-yl]-6,6,7,7-tetrafluoro-1-methyl-6,7-dihydro-1H-[1,4]dioxino[2,3-f]benzimidazole]: the pest or weed control at 100 g/ha in the assay with Spodoptera frugiperda and in the assay with Diabrotica balteata was 100% throughout. In addition, the pest or weed control at 500 g/ha in the assay with Nezara viridula worked out at 90%.

In the case of `CCS(=O)(=O)c1c(-c2nc3cc4c(cc3n2C)OC(F)(F)C(F)(F)O4)nc(-c2ccc(Cl)cn2)n1C` [Example I-31, 2-[2-(5-Chloropyridin-2-yl)-5-(ethylsulfonyl)-1-methyl-1H-imidazol-4-yl]-6,6,7,7-tetrafluoro-1-methyl-6,7-dihydro-1H-[1,4]dioxino[2,3-f]benzimidazole], the pest or weed control at 100 g/ha in the assay on Spodoptera frugiperda came to 100%.

Regarding `CCS(=O)(=O)c1c(-c2nc3cc4c(cc3n2C)OC(F)(F)C(F)(F)O4)nc(-c2ccc(C#N)cn2)n1C` [Example I-32, 6-[5-(Ethylsulfonyl)-1-methyl-4-(6,6,7,7-tetrafluoro-1-methyl-6,7-dihydro-1H-[1,4]dioxino[2,3-f]benzimidazol-2-yl)-1H-imidazol-2-yl]nicotinonitrile], the pest or weed control at 100 g/ha in the assay with Spodoptera frugiperda and with Diabrotica balteata was 100% each time.

`CCS(=O)(=O)c1c(-c2nc3cc4c(cc3n2C)OC(F)(F)C(F)(F)O4)nc(-c2cccc(Cl)c2)n1C` [Example I-13, 2-[2-(3-Chlorophenyl)-5-(ethylsulfonyl)-1-methyl-1H-imidazol-4-yl]-6,6,7,7-tetrafluoro-1-methyl-6,7-dihydro-1H-[1,4]dioxino[2,3-f]benzimidazole]: the pest or weed control at 100 g/ha in the assay on Spodoptera frugiperda and with Diabrotica balteata was 100% in each case.

On to `CCS(=O)(=O)c1c(-c2nc3cc4c(cc3n2C)OC(F)(F)C(F)(F)O4)nc(-c2ccc(Br)cn2)n1C` [Example I-24, 2-[2-(5-Bromopyridin-2-yl)-5-(ethylsulfonyl)-1-methyl-1H-imidazol-4-yl]-6,6,7,7-tetrafluoro-1-methyl-6,7-dihydro-1H-[1,4]dioxino[2,3-f]benzimidazole], for which the pest or weed control at 100 g/ha in the assay with Spodoptera frugiperda and in the assay with Diabrotica balteata was 100% each time. Also, the pest or weed control at 500 g/ha with Nezara viridula stood at 100%.
